Assay results published in PubChem BioAssay AID2060483 (Molecular Pharmacology Branch, DTP, NCI, 2025).

Test system: K24384-001-R-PDC complex spheroids, viability
Test: Anticancer human tumor K24384-001-R-PDC patient-derived pancreatic adenocarcinoma cell line growth inhibition [GQUAD]
Conditions: for IC50: curve of first compound; for viability, T/C: stronger effect = lower value
How it was run: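 Tumor cells were grown as complex spheroids with HUVEC endothelial cells and mesenchymal stem cells as stroma. G-quadruplex stabilizers were combined with targeted agents over half-log dilutions from near the clinical Cmax, or from 10 microM.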
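Also: spheroids exposed to compounds for seven days.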

Question: Which IC50 (second compound 0.0316 µM) does the source give for `CCCS(=O)(=O)Nc1ccc(F)c(C(=O)c2c[nH]c3ncc(-c4ccc(Cl)cc4)cc23)c1F` + Cc1[nH]c2ccc(F)cc2c1-c1nc2c3cccnc3c3ncccc3c2[nH]1 here?
Answer: 9.15 µM

Question: And the IC50 (second compound 0.1 µM)?
Answer: 8.66 µM

Question: What about the IC50 (second compound 0.316 µM) of the same molecule?
Answer: 8.26 µM

Question: What about the IC50 (second compound 1 µM) of the same molecule?
Answer: 7.75 µM

Question: What about the IC50 (second compound 3.16 µM) of the same molecule?
Answer: 5.03 µM

Question: What about the IC50 (second compound 10 µM) of the same molecule?
Answer: 5.99 µM

Question: And the viability, T/C (second compound 0.0316 µM, first compound 0.0316 µM)?
Answer: 86.4%

Question: And the viability, T/C (second compound 0.0316 µM, first compound 0.1 µM)?
Answer: 137%

Question: What about the viability, T/C (second compound 0.0316 µM, first compound 0.316 µM) of the same molecule?
Answer: 107%

Question: And the viability, T/C (second compound 0.0316 µM, first compound 1 µM)?
Answer: 117%

Question: And the viability, T/C (second compound 0.0316 µM, first compound 3.16 µM)?
Answer: 130%

Question: And the viability, T/C (second compound 0.0316 µM, first compound 10 µM)?
Answer: 44.5%

Question: What about the viability, T/C (second compound 0.1 µM, first compound 0.0316 µM) of the same molecule?
Answer: 87.7%

Question: And the viability, T/C (second compound 0.1 µM, first compound 0.1 µM)?
Answer: 105%

Question: What about the viability, T/C (second compound 0.1 µM, first compound 0.316 µM) of the same molecule?
Answer: 117%

Question: What about the viability, T/C (second compound 0.1 µM, first compound 1 µM) of the same molecule?
Answer: 128%

Question: And the viability, T/C (second compound 0.1 µM, first compound 3.16 µM)?
Answer: 122%

Question: What about the viability, T/C (second compound 0.1 µM, first compound 10 µM) of the same molecule?
Answer: 41%

Question: And the viability, T/C (second compound 0.316 µM, first compound 0.0316 µM)?
Answer: 92.1%

Question: And the viability, T/C (second compound 0.316 µM, first compound 0.1 µM)?
Answer: 102%

Question: What about the viability, T/C (second compound 0.316 µM, first compound 0.316 µM) of the same molecule?
Answer: 140%

Question: What about the viability, T/C (second compound 0.316 µM, first compound 1 µM) of the same molecule?
Answer: 137%

Question: And the viability, T/C (second compound 0.316 µM, first compound 3.16 µM)?
Answer: 125%

Question: And the viability, T/C (second compound 0.316 µM, first compound 10 µM)?
Answer: 36.3%

Question: What about the viability, T/C (second compound 1 µM, first compound 0.0316 µM) of the same molecule?
Answer: 112%

Question: What about the viability, T/C (second compound 1 µM, first compound 0.1 µM) of the same molecule?
Answer: 109%

Question: What about the viability, T/C (second compound 1 µM, first compound 0.316 µM) of the same molecule?
Answer: 108%

Question: What about the viability, T/C (second compound 1 µM, first compound 1 µM) of the same molecule?
Answer: 126%

Question: And the viability, T/C (second compound 1 µM, first compound 3.16 µM)?
Answer: 128%

Question: What about the viability, T/C (second compound 1 µM, first compound 10 µM) of the same molecule?
Answer: 31%

Question: And the viability, T/C (second compound 3.16 µM, first compound 0.0316 µM)?
Answer: 77%

Question: And the viability, T/C (second compound 3.16 µM, first compound 0.1 µM)?
Answer: 111%

Question: What about the viability, T/C (second compound 3.16 µM, first compound 0.316 µM) of the same molecule?
Answer: 76.7%

Question: And the viability, T/C (second compound 3.16 µM, first compound 1 µM)?
Answer: 92.2%

Question: And the viability, T/C (second compound 3.16 µM, first compound 3.16 µM)?
Answer: 75.9%

Question: And the viability, T/C (second compound 3.16 µM, first compound 10 µM)?
Answer: 11.3%

Question: And the viability, T/C (second compound 10 µM, first compound 0.0316 µM)?
Answer: 84.6%

Question: What about the viability, T/C (second compound 10 µM, first compound 0.1 µM) of the same molecule?
Answer: 80.8%

Question: And the viability, T/C (second compound 10 µM, first compound 0.316 µM)?
Answer: 85.2%

Question: What about the viability, T/C (second compound 10 µM, first compound 1 µM) of the same molecule?
Answer: 117%

Question: And the viability, T/C (second compound 10 µM, first compound 3.16 µM)?
Answer: 109%

Question: And the viability, T/C (second compound 10 µM, first compound 10 µM)?
Answer: 13.8%
